In general, pIC50 refers to −log10 of the IC50, conventionally taken in molar units.

pIC50: −log10 of the molar value.

Data set [1] relates to diuresis/natriuresis in volume-loaded rats. The data set can be described thus: In-vivo effect on diuresis/natriuresis in volume-loaded rats. The arrangement: species or system male Wistar rats. Particulars: 60 min collection. Here is the method:
The in-vivo activity was investigated in volume-loaded rats. In this experiment, a high cardiac filling pressure was produced by an infusion of isotonic sodium chloride solution, as a consequence of which ANP release and, as a result, diuresis/natriuresis occurred.
The experiments were carried out using male Wistar rats having a body weight of 200-400 g. Under neuroleptic analgesia (fentanyl; Hypnorm®, manufacturer Janssen), a catheter was tied into the right femoral vein for the background infusion and the volume loading with isotonic sodium chloride solution. After opening the abdomen, a second catheter was inserted in the bladder and the urethra was tied off so that a measurement of urinary volume, natriuresis and kaliuresis was possible.
The abdomen was closed again, and the animals received a continuous infusion of sodium chloride solution (0.5 ml/100 g of body weight) over the total experimental period of 2 hours. After an equilibration period of 30 minutes, urine samples were collected three times in each case over a period of 10 minutes in a preliminary phase before test substance administration. These preliminary values ("predrug" values) were determined in order to check that a continuous urine flow was taking place in the test animals.
The solutions comprising the test substances were then administered intravenously (bolus injection in the femoral vein) or orally (by means of stomach tube) to groups of 10 rats in each case. For both administration forms, one control animal group in each case received only placebo solutions which contained no active compound. 5 minutes after i.v. administration or 120 minutes after oral administration of the substances, the rats were loaded i.v. with an increased volume of sodium chloride solution (2 ml/100 g of body weight in 2 minutes) and the urine was collected over a period of 60 minutes. The amounts of urine produced in this period were determined, and the sodium and potassium contents contained therein were measured. From the amounts of urine produced, the increase in excretion which took place under volume loading is read off compared with the preliminary values.
In the following Table 1, the increases in urine excretion which have taken place under volume loading after administration of the test substances are indicated in % relative to the urine excretion which has taken place under volume loading after administration of placebo. Furthermore, the amounts of sodium and potassium excreted under volume loading after test substance administration are also indicated in % of the amounts of sodium and potassium excreted under volume loading after administration of placebo. The example numbers in Tables 1 and 2 relate to the subsequent synthesis examples.

In data set [2] the test system is endothelin-converting enzyme (ECE). The data set can be described thus: In-vivo ECE inhibitory action: blood pressure increase induced by BIG-ET in rats. The arrangement: species or system male CD rats. Here is the method:
ET is an endogenous strongly vasoconstrictory active substance. An increase in the ET level leads to a blood pressure increase. On infusion of BIG-ET, a blood pressure increase takes place to the extent at which ET is formed from this by ECE-catalysed cleavage. As a measure of the ECE-inhibitory action of the substances, their inhibitory action on the blood pressure increase induced by infusion of BIG-ET was determined.
The experiments were carried out using male CD® rats from Charles River Wiga having a body weight of 220-280 g. Under ketamine/xylazine anaesthesia, a catheter for substance administration was tied into the left jugular vein and a second for the measurement of the blood pressure was tied into the left carotid artery of the animals. After a recovery time of 30 minutes, the test substance was administered intravenously (i.v.) or intraduodenally (i.d.) to the animals as a solution. After administration of the test substances, the animals each received BIG-ET in a dose of 0.5 nmole/kg intravenously. The period between administration of the test substance and the administration of BIG-ET was 5 minutes in each case on i.v. administration, 15 minutes in each case on i.d. administration of the test substances of Example Nos. 18 and 22, and 30 minutes in each case on i.d. administration of the test substances of Example Nos. 8 and 20. During the next 30 minutes, the systolic and the diastolic blood pressure were recorded every 5 minutes. With untreated animals, the infusion of 0.5 nmol/kg of big endothelin leads reproducibly to a drastic blood pressure increase, which lasts about 30 minutes. The maximum of the blood pressure increase is reached after about 5 minutes.
In the following Table 2, the maximum increase in the blood pressure after BIG-ET administration is indicated for control animals treated with placebo solution and for animals which have been pretreated with the test substance solutions in different doses.

Data set [3] addresses neutral endopeptidase (NEP) (E.C. 3.4.24.11) (Homo sapiens, UniProt P08473). As to the kind of experiment: In-vitro NEP inhibitory action (hydrolytic degradation of Met-encephalin). Particulars: purified NEP, Met-encephalin substrate, pH 7.4, 37° C.; read-out: IC50 value for NEP inhibition. The format is biochemical. The protocol: In this test, the measure of the inhibitory activity of the substances determined was their IC50 value. The IC50 value of a test substance having enzyme-inhibitory activity is that concentration of the test substance at which 50% of the enzymatic activity of the NEP is blocked.
To carry out the test, respective 100 μl samples of various incubation solutions comprising 10 ng of purified NEP (E.C. 3.4.24.11) and different amounts of test substance and 20 μl substrate (Met-encephalin) and 50 mM tris buffer (tris(hydroxymethyl)aminomethane/HCl, pH 7.4) were prepared. […]
The incubation solutions were incubated for 30 minutes at 37° C. in a shaking water bath. […] The stopped incubation solution was then centrifuged at 12,000×g for 3 minutes, and the concentrations of unreacted substrate and of hydrolysis products formed by the enzymatic reaction were determined in the supernatant. For this purpose, samples of the respective supernatants were separated by high-pressure liquid chromatography (HPLC) on hydrophobicized silica gel, and the products of the enzymatic reaction and unreacted substrate were determined photometrically at a wavelength of 205 nm. […]
The IC50 value of the test substances was calculated in a known manner from the concentrations of hydrolysis products and unreacted substrate measured in the different samples.

Data set [4] in a line: Determination of the minimum toxic dose (i.v.) in rats. The format is in vivo. Particulars: 215 mg/kg i.v., observed for one week. The protocol: I.v. maximum doses of 215 mg/kg of the test substances (dissolved in 0.1 N aqueous NaOH solution, whose pH had been adjusted to 7.1) were administered to groups of 10 rats each of 250 g body weight (age 5 to 6 weeks). From the time of administration, the animals were carefully observed for 5 hours for clinically recognizable signs of toxicity. Moreover, they were observed twice daily until one week had passed. After expiry of this week, each individual animal was completely dissected and all organs were examined macroscopically. If death or severe toxic symptoms was observed, increasingly smaller doses were administered to further rats until toxic symptoms no longer occured. The lowest dose which caused death or severe toxic symptoms was determined to be the minimum toxic dose.

Setting [5] is: 30 μmol/kg i.d., 30 min before BIG-ET 0.5 nmole/kg i.v., control 40.
Setting [6] is: 30 μmol/kg i.d., 30 min before BIG-ET 0.5 nmole/kg i.v., control 61.
The mark [7] stands for this setting: 30 μmol/kg i.d., 15 min before BIG-ET 0.5 nmole/kg i.v., control 40.
[8] abbreviates: 30 μmol/kg i.d., 15 min before BIG-ET 0.5 nmole/kg i.v., control 61.

neutral endopeptidase (NEP) (E.C. 3.4.24.11), sequence (P08473 whole entry, species assumed): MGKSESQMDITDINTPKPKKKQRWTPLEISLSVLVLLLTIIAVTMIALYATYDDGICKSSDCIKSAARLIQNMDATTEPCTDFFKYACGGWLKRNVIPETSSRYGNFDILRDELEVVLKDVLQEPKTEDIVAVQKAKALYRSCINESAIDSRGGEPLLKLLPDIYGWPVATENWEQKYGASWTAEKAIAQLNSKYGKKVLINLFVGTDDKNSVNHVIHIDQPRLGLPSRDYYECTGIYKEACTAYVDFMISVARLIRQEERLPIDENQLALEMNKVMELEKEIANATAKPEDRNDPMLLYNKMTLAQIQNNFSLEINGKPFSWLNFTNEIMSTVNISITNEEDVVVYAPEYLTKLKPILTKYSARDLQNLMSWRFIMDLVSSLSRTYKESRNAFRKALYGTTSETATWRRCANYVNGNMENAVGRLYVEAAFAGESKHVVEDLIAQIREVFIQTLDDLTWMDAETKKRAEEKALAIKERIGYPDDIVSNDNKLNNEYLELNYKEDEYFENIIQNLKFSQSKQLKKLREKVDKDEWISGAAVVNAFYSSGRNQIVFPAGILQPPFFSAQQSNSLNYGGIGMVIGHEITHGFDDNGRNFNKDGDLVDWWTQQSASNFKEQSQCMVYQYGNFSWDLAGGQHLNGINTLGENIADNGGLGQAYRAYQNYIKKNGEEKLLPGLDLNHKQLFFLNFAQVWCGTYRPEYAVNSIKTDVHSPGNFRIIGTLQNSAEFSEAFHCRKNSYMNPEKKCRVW

`O=C(O)CN1C(=O)[C@@H](NC(=O)C2(CP(=O)(O)O)CCCC2)CCc2ccccc21` [Example 2, (3S)-3-(1-Phosphonomethylcyclopentane-1-carbonylamino)-2,3,4,5-tetrahydro-2-oxo-1H-1-benzazepine-1-acetic acid]: the “Increase in urine excretion under volume loading after administration of test substance in % relative to the urine excretion under volume loading after administration of placebo” value in data set [1] (6.0 μmole/kg i.v.) is recorded as 117%; in data set [1] (20.0 μmole/kg i.v.), 149%. The figures for the “K excretion under volume loading: amount excreted after administration of test substance in % of the amount excreted after administration of placebo” value in data set [1] (6.0 μmole/kg i.v.) and in data set [1] (20.0 μmole/kg i.v.) were 116% and 182%, respectively. Moreover, the figures for the “Na excretion under volume loading: amount excreted after administration of test substance in % of the amount excreted after administration of placebo” value in data set [1] (6.0 μmole/kg i.v.) and in data set [1] (20.0 μmole/kg i.v.) were 147% and 246%, respectively. Further, the “Blood pressure increase after BIG-ET administration, diastolic pressure (maximum)” value amounted to 23 mm Hg in data set [2] (1 mg/kg i.v., 5 min before BIG-ET 0.5 nmole/kg i.v., control 32); 14 mm Hg in data set [2] (3 mg/kg i.v., 5 min before BIG-ET 0.5 nmole/kg i.v., control 32); 0.4 mm Hg in data set [2] (10 mg/kg i.v., 5 min before BIG-ET 0.5 nmole/kg i.v., control 32). Further, the “Blood pressure increase after BIG-ET administration, systolic pressure (maximum)” value in data set [2] (1 mg/kg i.v., 5 min before BIG-ET 0.5 nmole/kg i.v., control 65) is recorded as 38 mm Hg; in data set [2] (3 mg/kg i.v., 5 min before BIG-ET 0.5 nmole/kg i.v., control 65), 27 mm Hg; in data set [2] (10 mg/kg i.v., 5 min before BIG-ET 0.5 nmole/kg i.v., control 65), -1 mm Hg. In addition, the pIC50 in data set [3] was 8.77. Further, in data set [4], the “signs of toxicity at maximum dose” value is listed as “no significant signs of toxicity”.

For the compound `CCOP(=O)(CC1(C(=O)N[C@H]2CCc3ccccc3N(CC(=O)OC(C)(C)C)C2=O)CCCC1)OCc1ccccc1` (stereo partly drawn) [Example 8, tert-Butyl (3S)-3-(1-benzylethylphosphonomethylcyclopentane-1-carbonylamino)-2,3,4,5-tetrahydro-2-oxo-1H-1-benzazepine-1-acetate], in data set [2] (setting [5]), the “Blood pressure increase after BIG-ET administration, diastolic pressure (maximum)” value was determined as 26 mm Hg. In addition, the “Blood pressure increase after BIG-ET administration, systolic pressure (maximum)” value in data set [2] (setting [6]) was found to be 25 mm Hg.

Regarding `CCOC(=O)CN1C(=O)[C@@H](NC(=O)C2(CP(=O)(O)O)CCCC2)CCc2ccccc21` [Example 13, Ethyl (3S)-3-(1-phosphonomethylcyclopentane-1-carbonylamino)-2,3,4,5-tetrahydro-2-oxo-1H-1-benzazepine-1-acetate], in data set [1] (30.0 μmole/kg p.o.), the “Increase in urine excretion under volume loading after administration of test substance in % relative to the urine excretion under volume loading after administration of placebo” value is 168%, the “K excretion under volume loading: amount excreted after administration of test substance in % of the amount excreted after administration of placebo” value came to 87% and the “Na excretion under volume loading: amount excreted after administration of test substance in % of the amount excreted after administration of placebo” value is listed as 128%.

For `CCOP(=O)(CC1(C(=O)N[C@H]2CCc3ccccc3N(CC(=O)OC(C)(C)C)C2=O)CCCC1)OCOC(=O)C(C)(C)C` (stereo partly drawn) [Example 18, tert-Butyl (3S)-3-[1-(pivaloyloxymethylethylphosphono-methyl)cyclopentane-1-carbonylamino]-2,3,4,5-tetrahydro-2-oxo-1H-benzazepine-1-acetate], the “Blood pressure increase after BIG-ET administration, diastolic pressure (maximum)” value in data set [2] (setting [7]) is given as 17 mm Hg. The “Blood pressure increase after BIG-ET administration, systolic pressure (maximum)” value in data set [2] (setting [8]) is recorded as 19 mm Hg.

Regarding `CC(C)(C)OC(=O)CN1C(=O)[C@@H](NC(=O)C2(CP(=O)(O)O)CCCC2)CCc2ccccc21` [Example 20, tert-Butyl (3S)-3-[1-phosphonomethylcyclopentane-1-carbonylamino)-2,3,4,5-tetrahydro-2-oxo-1H-1-benzazepine-1-acetate], the “Blood pressure increase after BIG-ET administration, diastolic pressure (maximum)” value in data set [2] (setting [5]) is listed as 37 mm Hg. Further, the “Blood pressure increase after BIG-ET administration, systolic pressure (maximum)” value in data set [2] (setting [6]) came to 50 mm Hg.

As for `CCOP(=O)(O)CC1(C(=O)NC2CCc3ccccc3N(CC(=O)O)C2=O)CCCC1` (stereo not shown) [Example 22], in data set [1] (30.0 μmole/kg p.o.), the “Increase in urine excretion under volume loading after administration of test substance in % relative to the urine excretion under volume loading after administration of placebo” value came out at 127%, the “K excretion under volume loading: amount excreted after administration of test substance in % of the amount excreted after administration of placebo” value came out at 106% and the “Na excretion under volume loading: amount excreted after administration of test substance in % of the amount excreted after administration of placebo” value stood at 161%. For the same compound, the “Blood pressure increase after BIG-ET administration, diastolic pressure (maximum)” value in data set [2] (setting [7]) was found to be 21 mm Hg. Also, the “Blood pressure increase after BIG-ET administration, systolic pressure (maximum)” value in data set [2] (setting [8]) is recorded as 36 mm Hg.

The values above are taken from patent US5952327A, “Phosphonic acid-substituted benzazepinone-n-acetic acid derivatives process for their preparation and pharmaceutical compositions comprising them” (Solvay Pharmaceuticals GmbH, priority 1997, dated 1999).
